Experimental data from US9738612B2, “Methylacryloyl benzimidazolone derivative and anti-tumour use thereof” (SHANGHAI NATURE STANDARD R&D AND BIOTECH CO., LTD, priority 2014, dated 2017).

How the values were obtained:
Assay in all cases: Tumor-associated kinase inhibition test
Assay type in all cases: biochemical
Conditions in all cases: read-out: Inhibitory rate (%)
mTOR/FKBP12(h) = biological target: T1, mTOR/FKBP12(h) (Homo sapiens, UniProt P42345)
T1 construct: purchased Eurofins Pharma Discovery Services UK Limited
Excerpt: (§1) Eurofins Pharma Discovery Services UK Limited completed and reported this experiment.

PKCδ(h) = biological target: T2, PKCδ(h) (Homo sapiens, UniProt Q05655)
T2 construct: purchased Eurofins Pharma Discovery Services UK Limited
Excerpt: as §1

KDR(h) = biological target: T3, KDR(h) (Homo sapiens, UniProt P35968)
T3 construct: purchased Eurofins Pharma Discovery Services UK Limited
Excerpt: as §1

ZAP-70(h) = biological target: T4, ZAP-70(h) (Homo sapiens, UniProt P43403)
T4 construct: purchased Eurofins Pharma Discovery Services UK Limited
Excerpt: as §1

CaMKK2(h) = biological target: T5, CaMKK2(h) (Homo sapiens, UniProt Q96RR4)
T5 construct: purchased Eurofins Pharma Discovery Services UK Limited (contract assay service)
Excerpt: as §1

PDGFRβ(h) = biological target: T6, PDGFRβ(h) (Homo sapiens, UniProt P09619)
T6 construct: purchased Eurofins Pharma Discovery Services UK Limited
Excerpt: as §1

CaMKIIβ(h) = biological target: T7, CaMKIIβ(h) (Homo sapiens, UniProt Q13554)
T7 construct: purchased Eurofins Pharma Discovery Services UK Limited (contract assay service)
Excerpt: as §1

PKCη(h) = biological target: T8, PKCη(h) (Homo sapiens, UniProt P24723)
T8 construct: purchased Eurofins Pharma Discovery Services UK Limited
Excerpt: as §1

PKCγ(h) = biological target: T9, PKCγ(h) (Homo sapiens, UniProt P05129)
T9 construct: purchased Eurofins Pharma Discovery Services UK Limited
Excerpt: as §1

PEK(h) = biological target: T10, PEK(h) (Homo sapiens, UniProt Q9NZJ5)
T10 construct: purchased Eurofins Pharma Discovery Services UK Limited
Excerpt: as §1

CHK1(h) = biological target: T11, CHK1(h) (Homo sapiens, UniProt O14757)
T11 construct: purchased Eurofins Pharma Discovery Services UK Limited (contract assay service)
Excerpt: as §1

JNK2α2(h) = biological target: T12, JNK2α2(h) (Homo sapiens, UniProt P45984)
T12 construct: purchased Eurofins Pharma Discovery Services UK Limited (contract testing)
Excerpt: as §1

PKCι(h) = biological target: T13, PKCι(h) (Homo sapiens, UniProt P41743)
T13 construct: purchased Eurofins Pharma Discovery Services UK Limited
Excerpt: as §1

EGFR(h) = biological target: T14, EGFR(h) (Homo sapiens, UniProt P00533)
T14 construct: purchased Eurofins Pharma Discovery Services UK Limited (contract testing)
Excerpt: as §1

B-Raf(V599E)(h) = biological target: T15, B-Raf(V599E)(h) (Homo sapiens, UniProt P15056, V600E)
T15 construct: purchased Eurofins Pharma Discovery Services UK Limited (contract assay service)
Excerpt: as §1

CSK(h) = biological target: T16, CSK(h) (Homo sapiens, UniProt P41240)
T16 construct: purchased Eurofins Pharma Discovery Services UK Limited (contract testing)
Excerpt: as §1

B-Raf(h) = biological target: T17, B-Raf(h) (Homo sapiens, UniProt P15056)
T17 construct: purchased Eurofins Pharma Discovery Services UK Limited (contract assay service)
Excerpt: as §1

[1] = biological target: T18, PI3Kinase(p110α(H1047R)/p85α)(h) (Homo sapiens, UniProt P42336, H1047R)
T18 construct: purchased Eurofins Pharma Discovery Services UK Limited (contract assay)
Excerpt: as §1

JAK2(h) = biological target: T19, JAK2(h) (Homo sapiens, UniProt O60674)
T19 construct: purchased Eurofins Pharma Discovery Services UK Limited (contract testing)
Excerpt: as §1

PI3KC2α(h) = biological target: T20, PI3KC2α(h) (Homo sapiens, UniProt O00443)
T20 construct: purchased Eurofins Pharma Discovery Services UK Limited (contract assay)
Excerpt: as §1

CK2(h) = biological target: T21, CK2(h) (Homo sapiens, UniProt P68400)
T21 construct: purchased Eurofins Pharma Discovery Services UK Limited (contract testing)
Excerpt: as §1

PDK1(h) = biological target: T22, PDK1(h) (Homo sapiens, UniProt O15530)
T22 construct: purchased Eurofins Pharma Discovery Services UK Limited
Excerpt: as §1

PIP4K2α(h) = biological target: T23, PIP4K2α(h) (Homo sapiens, UniProt P48426)
T23 construct: purchased Eurofins Pharma Discovery Services UK Limited (contract assay)
Excerpt: as §1

Aurora-A(h) = biological target: T24, Aurora-A(h) (Homo sapiens, UniProt O14965)
T24 construct: purchased Eurofins Pharma Discovery Services UK Limited (contract assay service)
Excerpt: as §1

cKit(h) = biological target: T25, cKit(h) (Homo sapiens, UniProt P10721)
T25 construct: purchased Eurofins Pharma Discovery Services UK Limited (contract testing)
Excerpt: as §1

DYRK2(h) = biological target: T26, DYRK2(h) (Homo sapiens, UniProt Q92630)
T26 construct: purchased Eurofins Pharma Discovery Services UK Limited (contract testing)
Excerpt: as §1

PKCζ(h) = biological target: T27, PKCζ(h) (Homo sapiens, UniProt Q05513)
T27 construct: purchased Eurofins Pharma Discovery Services UK Limited
Excerpt: as §1

Blk(h) = biological target: T28, Blk(h) (Homo sapiens, UniProt P51451)
T28 construct: purchased Eurofins Pharma Discovery Services UK Limited (contract assay service)
Excerpt: as §1

MST2(h) = biological target: T29, MST2(h) (Homo sapiens, UniProt Q13188)
T29 construct: purchased Eurofins Pharma Discovery Services UK Limited
Excerpt: as §1

[2] = biological target: T30, PI3Kinase(p110α(E542K)/p85α)(h) (Homo sapiens, UniProt P42336, E542K)
T30 construct: purchased Eurofins Pharma Discovery Services UK Limited (contract assay)
Excerpt: as §1

PRK2(h) = biological target: T31, PRK2(h) (Homo sapiens, UniProt Q16513)
T31 construct: purchased Eurofins Pharma Discovery Services UK Limited
Excerpt: as §1

T15 sequence (P15056 416-766 V600E limits assumed): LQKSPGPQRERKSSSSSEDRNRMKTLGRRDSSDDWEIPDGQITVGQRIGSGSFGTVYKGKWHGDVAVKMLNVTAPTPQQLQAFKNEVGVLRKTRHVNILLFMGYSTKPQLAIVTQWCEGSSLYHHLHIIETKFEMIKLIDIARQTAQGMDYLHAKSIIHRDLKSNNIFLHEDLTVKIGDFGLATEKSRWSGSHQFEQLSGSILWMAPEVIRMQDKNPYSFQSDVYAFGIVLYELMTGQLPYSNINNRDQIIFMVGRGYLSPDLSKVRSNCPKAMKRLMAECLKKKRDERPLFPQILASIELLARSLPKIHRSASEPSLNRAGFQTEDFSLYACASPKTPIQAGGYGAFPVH
T31 sequence (Q16513 whole entry): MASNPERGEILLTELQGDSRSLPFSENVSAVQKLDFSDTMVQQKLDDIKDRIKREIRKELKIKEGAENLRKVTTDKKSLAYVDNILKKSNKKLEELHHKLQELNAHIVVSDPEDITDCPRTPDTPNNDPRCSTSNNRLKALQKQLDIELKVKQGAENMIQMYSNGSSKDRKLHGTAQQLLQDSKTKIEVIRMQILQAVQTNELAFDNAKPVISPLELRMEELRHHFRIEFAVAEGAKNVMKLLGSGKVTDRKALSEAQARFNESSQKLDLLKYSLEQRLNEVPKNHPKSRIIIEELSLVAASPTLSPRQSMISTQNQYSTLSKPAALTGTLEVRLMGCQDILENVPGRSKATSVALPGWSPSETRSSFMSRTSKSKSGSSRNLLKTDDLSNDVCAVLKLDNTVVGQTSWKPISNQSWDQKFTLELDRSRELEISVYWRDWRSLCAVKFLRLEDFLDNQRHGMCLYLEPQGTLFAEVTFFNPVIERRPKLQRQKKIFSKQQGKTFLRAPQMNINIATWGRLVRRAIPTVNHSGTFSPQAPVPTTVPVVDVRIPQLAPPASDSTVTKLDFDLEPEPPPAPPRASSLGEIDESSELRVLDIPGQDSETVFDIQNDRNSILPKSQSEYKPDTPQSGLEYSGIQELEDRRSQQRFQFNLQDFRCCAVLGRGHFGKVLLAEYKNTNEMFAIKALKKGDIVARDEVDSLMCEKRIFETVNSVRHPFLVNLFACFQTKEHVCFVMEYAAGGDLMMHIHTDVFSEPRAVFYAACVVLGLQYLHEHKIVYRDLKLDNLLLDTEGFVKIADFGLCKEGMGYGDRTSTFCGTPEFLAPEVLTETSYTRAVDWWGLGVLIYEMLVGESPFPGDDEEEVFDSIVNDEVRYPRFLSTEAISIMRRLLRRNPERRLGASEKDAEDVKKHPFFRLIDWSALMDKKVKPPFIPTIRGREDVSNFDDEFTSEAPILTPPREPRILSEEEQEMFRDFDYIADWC
T26 sequence (Q92630 whole entry): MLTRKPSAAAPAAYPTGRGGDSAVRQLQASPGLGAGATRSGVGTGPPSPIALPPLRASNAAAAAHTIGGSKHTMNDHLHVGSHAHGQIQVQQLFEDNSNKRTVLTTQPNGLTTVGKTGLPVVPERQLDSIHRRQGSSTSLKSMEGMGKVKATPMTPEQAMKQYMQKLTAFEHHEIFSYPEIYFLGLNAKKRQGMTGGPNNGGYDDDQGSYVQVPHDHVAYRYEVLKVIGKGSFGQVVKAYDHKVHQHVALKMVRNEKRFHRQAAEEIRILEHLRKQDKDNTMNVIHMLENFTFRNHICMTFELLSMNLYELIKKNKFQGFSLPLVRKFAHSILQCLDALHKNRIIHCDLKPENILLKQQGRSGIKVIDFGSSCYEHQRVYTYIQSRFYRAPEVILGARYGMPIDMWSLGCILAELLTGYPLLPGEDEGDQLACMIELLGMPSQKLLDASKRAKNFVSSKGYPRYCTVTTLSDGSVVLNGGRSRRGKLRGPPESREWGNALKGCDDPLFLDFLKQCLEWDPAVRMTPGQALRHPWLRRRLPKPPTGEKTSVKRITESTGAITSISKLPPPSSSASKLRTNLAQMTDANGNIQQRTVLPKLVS
T6 sequence (P09619 33-1106): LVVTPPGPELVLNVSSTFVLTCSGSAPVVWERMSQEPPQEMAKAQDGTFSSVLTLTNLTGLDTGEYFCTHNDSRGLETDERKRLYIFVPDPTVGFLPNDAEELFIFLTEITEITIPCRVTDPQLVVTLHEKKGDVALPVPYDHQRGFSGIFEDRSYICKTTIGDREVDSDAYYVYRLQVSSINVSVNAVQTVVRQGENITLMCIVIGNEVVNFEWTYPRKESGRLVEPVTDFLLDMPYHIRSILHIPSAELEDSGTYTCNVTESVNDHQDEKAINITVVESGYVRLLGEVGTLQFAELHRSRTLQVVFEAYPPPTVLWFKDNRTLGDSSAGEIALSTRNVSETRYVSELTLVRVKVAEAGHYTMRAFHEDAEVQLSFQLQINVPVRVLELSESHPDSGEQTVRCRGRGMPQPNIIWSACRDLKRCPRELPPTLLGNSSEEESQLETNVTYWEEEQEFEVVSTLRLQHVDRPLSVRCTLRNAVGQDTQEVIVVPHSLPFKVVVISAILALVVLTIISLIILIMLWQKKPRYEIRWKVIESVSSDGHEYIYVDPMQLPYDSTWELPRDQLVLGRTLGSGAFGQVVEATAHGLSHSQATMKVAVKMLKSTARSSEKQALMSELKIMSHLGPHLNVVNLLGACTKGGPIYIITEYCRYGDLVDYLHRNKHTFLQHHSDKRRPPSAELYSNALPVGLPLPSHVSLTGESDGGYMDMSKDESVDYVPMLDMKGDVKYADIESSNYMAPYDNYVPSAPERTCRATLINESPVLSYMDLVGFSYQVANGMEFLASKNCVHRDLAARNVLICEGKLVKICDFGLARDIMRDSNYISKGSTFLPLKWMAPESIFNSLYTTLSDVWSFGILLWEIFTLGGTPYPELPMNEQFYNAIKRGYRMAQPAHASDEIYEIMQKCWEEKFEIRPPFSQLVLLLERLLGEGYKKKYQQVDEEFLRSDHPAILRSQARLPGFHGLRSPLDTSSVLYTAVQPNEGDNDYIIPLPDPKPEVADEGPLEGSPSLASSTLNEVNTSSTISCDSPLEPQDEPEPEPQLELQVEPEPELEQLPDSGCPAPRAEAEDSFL
T23 sequence (P48426 whole entry): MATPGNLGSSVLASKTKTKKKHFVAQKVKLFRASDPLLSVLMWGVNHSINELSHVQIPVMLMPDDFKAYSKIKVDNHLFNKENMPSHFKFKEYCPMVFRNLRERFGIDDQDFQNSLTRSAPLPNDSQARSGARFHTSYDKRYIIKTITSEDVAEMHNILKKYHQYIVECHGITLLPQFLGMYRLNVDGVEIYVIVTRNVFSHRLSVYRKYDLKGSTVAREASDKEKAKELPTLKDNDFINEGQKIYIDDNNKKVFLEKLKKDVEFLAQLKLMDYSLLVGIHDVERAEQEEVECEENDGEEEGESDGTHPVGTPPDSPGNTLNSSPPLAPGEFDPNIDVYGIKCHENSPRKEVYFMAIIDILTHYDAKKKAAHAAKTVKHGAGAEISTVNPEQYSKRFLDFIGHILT
T7 sequence (Q13554 whole entry): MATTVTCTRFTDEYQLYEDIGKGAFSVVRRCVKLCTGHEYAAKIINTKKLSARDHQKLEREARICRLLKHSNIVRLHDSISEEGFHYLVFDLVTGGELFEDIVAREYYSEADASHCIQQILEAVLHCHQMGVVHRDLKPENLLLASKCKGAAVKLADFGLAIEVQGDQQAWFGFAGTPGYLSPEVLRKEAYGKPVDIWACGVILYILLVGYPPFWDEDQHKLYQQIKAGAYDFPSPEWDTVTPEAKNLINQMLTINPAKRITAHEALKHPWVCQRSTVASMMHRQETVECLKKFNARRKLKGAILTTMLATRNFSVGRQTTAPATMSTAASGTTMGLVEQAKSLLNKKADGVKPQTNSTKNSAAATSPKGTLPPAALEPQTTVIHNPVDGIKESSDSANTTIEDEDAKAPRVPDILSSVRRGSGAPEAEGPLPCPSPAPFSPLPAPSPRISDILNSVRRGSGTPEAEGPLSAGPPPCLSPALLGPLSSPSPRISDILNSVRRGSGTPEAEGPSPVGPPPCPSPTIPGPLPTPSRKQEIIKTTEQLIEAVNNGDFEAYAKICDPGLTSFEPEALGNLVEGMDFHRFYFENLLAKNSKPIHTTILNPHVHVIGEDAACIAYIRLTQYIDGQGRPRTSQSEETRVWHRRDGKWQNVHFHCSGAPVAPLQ

inhibition at 10 µM (mTOR/FKBP12(h)): 33%
inhibition at 10 µM (PKCδ(h)): 18%
inhibition at 10 µM (KDR(h)): -1%
inhibition at 10 µM (ZAP-70(h)): -5%
inhibition at 10 µM (CaMKK2(h)): 1%
inhibition at 10 µM (PDGFRβ(h)): -8%
inhibition at 10 µM (CaMKIIβ(h)): 2%
inhibition at 10 µM (PKCη(h)): 2%
inhibition at 10 µM (PKCγ(h)): 11%
inhibition at 10 µM (PEK(h)): 0%
inhibition at 10 µM (CHK1(h)): -14%
inhibition at 10 µM (JNK2α2(h)): 3%
inhibition at 10 µM (PKCι(h)): 11%
inhibition at 10 µM (EGFR(h)): 0%
inhibition at 10 µM (B-Raf(V599E)(h)): -1%
inhibition at 10 µM (CSK(h)): -12%
inhibition at 10 µM (B-Raf(h)): -6%
inhibition at 10 µM [1]: 3%
inhibition at 10 µM (JAK2(h)): 7%
inhibition at 10 µM (PI3KC2α(h)): 7%
inhibition at 10 µM (CK2(h)): 15%
inhibition at 10 µM (PDK1(h)): -1%
inhibition at 10 µM (PIP4K2α(h)): -2%
inhibition at 10 µM (Aurora-A(h)): 1%
inhibition at 10 µM (cKit(h)): 7%
inhibition at 10 µM (DYRK2(h)): 1%
inhibition at 10 µM (PKCζ(h)): 5%
inhibition at 10 µM (Blk(h)): -5%
inhibition at 10 µM (MST2(h)): 1%
inhibition at 10 µM [2]: 4%
inhibition at 10 µM (PRK2(h)): -9%
SMILES: C=C(C)n1c(=O)n(C(C)=O)c2ncc(Br)cc21 [FD162]
